The record followed here is patent US20250236609A1, “VPS34 INHIBITORS AND METHODS OF USE THEREOF” (Deciphera Pharmaceuticals, LLC, priority 2023, published 2025).

Sequence of VPS34 (Q8NEB9 other isoform, or with tags, fused parts or gaps): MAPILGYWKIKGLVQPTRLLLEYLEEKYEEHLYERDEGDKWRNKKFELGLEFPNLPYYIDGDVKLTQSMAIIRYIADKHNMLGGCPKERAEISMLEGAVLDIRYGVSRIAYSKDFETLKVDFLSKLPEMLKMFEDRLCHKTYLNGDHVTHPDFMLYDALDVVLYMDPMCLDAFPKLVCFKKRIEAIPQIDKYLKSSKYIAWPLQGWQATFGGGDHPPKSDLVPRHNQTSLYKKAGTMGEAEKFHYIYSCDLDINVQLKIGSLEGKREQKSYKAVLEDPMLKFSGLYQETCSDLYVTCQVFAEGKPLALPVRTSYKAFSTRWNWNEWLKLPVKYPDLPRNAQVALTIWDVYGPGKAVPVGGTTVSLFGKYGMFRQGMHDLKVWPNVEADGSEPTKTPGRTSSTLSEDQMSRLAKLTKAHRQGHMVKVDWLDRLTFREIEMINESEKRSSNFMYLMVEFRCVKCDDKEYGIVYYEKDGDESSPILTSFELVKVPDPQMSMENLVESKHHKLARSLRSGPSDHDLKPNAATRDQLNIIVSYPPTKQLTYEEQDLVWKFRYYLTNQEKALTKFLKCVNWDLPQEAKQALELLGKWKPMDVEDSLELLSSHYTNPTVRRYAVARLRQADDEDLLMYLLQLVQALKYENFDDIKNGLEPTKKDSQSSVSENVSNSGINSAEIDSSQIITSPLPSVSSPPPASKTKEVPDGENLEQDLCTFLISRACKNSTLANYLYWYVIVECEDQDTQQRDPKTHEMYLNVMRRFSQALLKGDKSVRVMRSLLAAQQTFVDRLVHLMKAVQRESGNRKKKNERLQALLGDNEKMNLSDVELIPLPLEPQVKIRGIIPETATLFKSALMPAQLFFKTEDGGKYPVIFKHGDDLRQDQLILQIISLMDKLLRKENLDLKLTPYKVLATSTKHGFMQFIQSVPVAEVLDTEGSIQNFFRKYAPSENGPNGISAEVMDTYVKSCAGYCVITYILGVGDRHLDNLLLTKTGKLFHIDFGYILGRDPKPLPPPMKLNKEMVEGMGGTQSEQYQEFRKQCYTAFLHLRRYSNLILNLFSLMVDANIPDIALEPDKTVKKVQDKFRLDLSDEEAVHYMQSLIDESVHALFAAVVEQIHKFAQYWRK

This test deals with VPS34 (Homo sapiens (Human), UniProt Q8NEB9). The test is described as follows: Biochemical Assay for VPS34 (ADP-Glo kinase activity assay). The settings on record: 25 nM VPS34, 1 mM ATP, 1-hour incubation at 37° C.; read-out: VPS34 (Inhibition of biochemical activity of VPS34, IC50). The method, then:
Activity of VPS34 kinase was determined using an ADP-Glo kinase activity assay (Promega Corp). Assays were conducted in 384-well plates (5 μL assay volume) using 25 nM VPS34 (ThermoFisher Scientific), […] PI:3PS Lipid Kinase Substrate (Promega Corp.), and 1 mM ATP in kinase buffer. Inhibition of VPS34 was measured by adding serial diluted test compound (final assay concentration of 0.1% DMSO) followed by a 1-hour incubation at 37° C. ADP-Glo reagent was then added ([…]) followed by a 40 min incubation at rt. Kinase detection reagent was then added ([…]) and followed by a 60 min incubation at rt. Luminescence was then detected. The RLU at each compound concentration of was converted to percent inhibition using controls (i.e., reaction with no test compound and reaction with a known inhibitor) and IC50 values were calculated by fitting a four-parameter sigmoidal curve to the data using GeneData Screener software.
VPS34 Protein Sequence (Full Length with GST Tag)
On to `COC(=O)Nc1cc(-c2cc(-c3cccnc3C(F)(F)F)[nH]c(=O)c2)c(Cl)cn1` [Example 51], for which the IC50 lay within 1 to 10 µM. Under `CC(=O)Nc1cc(-c2cc(-c3cccnc3C(F)(F)F)[nH]c(=O)c2)c(C)cn1` [Example 9] stands 0.1 to 0.5 µM; under `Cc1cnc(Nc2cnn(CCN(C)C)c2)cc1-c1cc(N2CCCC[C@@H]2C(F)(F)F)[nH]c(=O)c1` [Example 69], 1 to 10 µM; under `CNCCC(=O)N1CCN(c2cc(-c3cc(NC(=O)OC)ncc3C)cc(=O)[nH]2)[C@@H](C)C1` [Example 60], 1 to 10 µM. Under `CNCCS(=O)(=O)Nc1ccc(-c2cc(-c3cc(NC(=O)C4CC4)ncc3C)cc(=O)[nH]2)c(C)c1` [Example 66] stands 0.1 to 0.5 µM; under `Cc1cnc(NC(=O)C2CC2)cc1-c1cc(N2CCN(S(=O)(=O)c3cc(F)ccc3F)C[C@@H]2C)[nH]c(=O)c1` [Example 86], 0.1 to 0.5 µM.

Take `Cc1cnc(Nc2cnn(C)c2)cc1-c1cc(-c2cccnc2C(F)(F)F)[nH]c(=O)c1` [Example 33]: the IC50 was 0.5 to 1 µM. As for `COC(=O)Nc1cc(-c2cc(-c3cccnc3C(F)(F)F)[nH]c(=O)c2)c(C2CC2)cn1` [Example 11], the 50% inhibitory concentration (IC50) is 1 to 10 µM. The value for `COC[C@H]1CCCN1c1cc(-c2cc(NC(=O)OC)ncc2C)cc(=O)[nH]1` [Example 67] was 1 to 10 µM; that for `Cc1cnccc1-c1cc(N2CCCC[C@@H]2C(F)(F)F)[nH]c(=O)c1` [Example 13] was 1 to 10 µM. Under `Cc1cnc(NC(=O)C2CC2)cc1-c1cc(N2CCN(C(=O)c3ccc(F)cc3)C[C@@H]2C)[nH]c(=O)c1` [Example 88] stands 1 to 10 µM; under `Cc1cnc(NC(=O)C2CC2)cc1-c1cc(NS(=O)(=O)c2ccc(F)cc2F)[nH]c(=O)c1` [compound 97], 0.1 to 0.5 µM. The value for `Cc1cnc(NC(=O)c2cnn(C)c2)cc1-c1cc(-c2cccnc2C(F)(F)F)[nH]c(=O)c1` [Example 68] was 1 to 10 µM. Consider `COC(=O)Nc1ncc(C)c(-c2cc(N3CCCC[C@@H]3C(F)(F)F)[nH]c(=O)c2)n1` [Example 8], for which the IC50 fell in the range of 0.1 to 0.5 µM.

In the case of `CNCC(=O)Nc1cc(-c2cc(-c3cccnc3C(F)(F)F)[nH]c(=O)c2)c(C)cn1` [Example 64], the IC50 was in the range of 1 to 10 µM. Under `Cc1cnc(N)cc1-c1cc(N2CCCC[C@@H]2C(F)(F)F)[nH]c(=O)c1` [Example 23] stands 1 to 10 µM. In the case of `COC(=O)Nc1cc(-c2cc(-c3cccnc3C(F)(F)F)[nH]c(=O)c2)c(CF)cn1` [Example 50], the IC50 was in the range of 1 to 10 µM. In the case of `Cc1cnc(NC(=O)C2COC2)cc1-c1cc(N2CCCC[C@@H]2C(F)(F)F)[nH]c(=O)c1` [Example 62], the IC50 is 1 to 10 µM.

In the case of `Cc1cnc(NC(=O)C2CC2)cc1-c1cc(-c2cnccc2C(F)(F)F)[nH]c(=O)c1` [Example 48], the IC50 fell in the range of 0.1 to 0.5 µM.

Take `Cc1cnc(NC(=O)CC2CN(C)C2)cc1-c1cc(N2CCCC[C@@H]2C(F)(F)F)[nH]c(=O)c1` [Example 3, (R)-N-(5-methyl-2′-oxo-6′-(2-(trifluoromethyl)piperidin-1-yl)-1′,2′-dihydro-[4,4′-bipyridin]-2-yl)-2-(1-methylazetidin-3-yl)acetamide]: the IC50 fell in the range of 0.1 to 0.5 µM. Under `Cc1cnc(NC(=O)C2CC2)cc1-c1cc(N2CCN(C(=O)c3cnn(C)c3)C[C@@H]2C)[nH]c(=O)c1` [Example 89] stands 0.5 to 1 µM; under `Cc1cnc(NC(=O)C2CC2)cc1-c1cc(N2CCN(S(=O)(=O)C3CC3)C[C@@H]2C)[nH]c(=O)c1` [Example 82], at most 0.1 µM; under `Cc1cnc(NC(=O)CN(C)C)cc1-c1cc(N2CCCC[C@@H]2C(F)(F)F)[nH]c(=O)c1` [Example 19], 1 to 10 µM.

Turning to `CNC(=O)Nc1cc(-c2cc(-c3cccnc3C(F)(F)F)[nH]c(=O)c2)c(C)cn1` [Example 52], the IC50 lay within 1 to 10 µM.

Take `Cc1cnc(Nc2ncn(C)n2)cc1-c1cc(N2CCCC[C@@H]2C(F)(F)F)[nH]c(=O)c1` [Example 42]: the IC50 is at most 0.1 µM. Consider `CNCCC(=O)Nc1cc(-c2cc(-c3cccnc3C(F)(F)F)[nH]c(=O)c2)c(C)cn1` [Example 73], for which the IC50 was 1 to 10 µM. The value for `Cc1cnc(NC(=O)C2CC2)cc1-c1cc(N2CCN(C(=O)c3cccnc3)C[C@@H]2C)[nH]c(=O)c1` [Example 94] was 1 to 10 µM; that for `Cc1cnc(NC(=O)OC2CC2)cc1-c1cc(N2CCCC[C@@H]2C(F)(F)F)[nH]c(=O)c1` [Example 30] was 0.1 to 0.5 µM; that for `COc1ccc(C(=O)N2CCN(c3cc(-c4cc(NC(=O)C5CC5)ncc4C)cc(=O)[nH]3)[C@@H](C)C2)cc1` [Example 92] was 1 to 10 µM. Under `Cc1ccnc(Nc2cc(-c3cc(N4CCCC[C@@H]4C(F)(F)F)[nH]c(=O)c3)c(C)cn2)n1` [Example 72] stands at most 0.1 µM; under `Cc1cnc(NC2COC2)cc1-c1cc(N2CCCC[C@@H]2C(F)(F)F)[nH]c(=O)c1` [Example 56], 1 to 10 µM; under `Cc1cnc(NC(=O)c2cnn(C)c2)cc1-c1cc(N2CCCC[C@@H]2C(F)(F)F)[nH]c(=O)c1` [Example 31], 0.5 to 1 µM. Under `COC(=O)Nc1cc(-c2cc(N3CCOC[C@H]3C(F)(F)F)[nH]c(=O)c2)c(C)cn1` [Example 36] stands 1 to 10 µM; under `Cc1cnc(NC(=O)C2CC2)cc1-c1cc(N2CCN(S(=O)(=O)CC3CC3)C[C@@H]2C)[nH]c(=O)c1` [Example 85], at most 0.1 µM. With `COCCS(=O)(=O)N1CCN(c2cc(-c3cc(NC(=O)C4CC4)ncc3C)cc(=O)[nH]2)[C@@H](C)C1` [Example 83], the IC50 is 0.1 to 0.5 µM.

Regarding `CNCCC(=O)Nc1cc(-c2cc(N3CCCC[C@@H]3C(F)(F)F)[nH]c(=O)c2)c(C)cn1` [Example 35], the IC50 fell in the range of 0.5 to 1 µM. As for `CNCCC(=O)N1CCN(c2cc(-c3cc(NC(=O)OC)ncc3C)cc(=O)[nH]2)[C@@H](C(F)(F)F)C1` [Example 58], the IC50 lay in the range of 1 to 10 µM.

Regarding `Cc1cnc(Nc2cnn(C)n2)cc1-c1cc(N2CCCC[C@@H]2C(F)(F)F)[nH]c(=O)c1` [Example 41], the IC50 was in the range of 0.1 to 0.5 µM.

Regarding `CCS(=O)(=O)N1CCN(c2cc(-c3cc(NC(=O)C4CC4)ncc3C)cc(=O)[nH]2)[C@@H](C)C1` [Example 76], the IC50 lay within 0.1 to 0.5 µM. The value for `Cc1cnc(NC(=O)[C@H]2CCN(C)C2)cc1-c1cc(N2CCCC[C@@H]2C(F)(F)F)[nH]c(=O)c1` [Example 57] was 1 to 10 µM. The value for `COc1ccc(S(=O)(=O)N2CCN(c3cc(-c4cc(NC(=O)C5CC5)ncc4C)cc(=O)[nH]3)[C@@H](C)C2)cc1` [Example 87] was 0.1 to 0.5 µM; that for `Cc1cnc(Nc2ccn(C)n2)cc1-c1cc(N2CCCC[C@@H]2C(F)(F)F)[nH]c(=O)c1` [Example 71] was 1 to 10 µM; that for `Cc1cnc(NC(=O)c2cnn(C3CNC3)c2)cc1-c1cc(N2CCCC[C@@H]2C(F)(F)F)[nH]c(=O)c1` [Example 74] was 1 to 10 µM. The value for `COC(=O)Nc1cc(-c2cc(-c3cccnc3C3CC3)[nH]c(=O)c2)c(C)cn1` [Example 70] was 1 to 10 µM; that for `Cc1nc(Nc2cc(-c3cc(N4CCCC[C@@H]4C(F)(F)F)[nH]c(=O)c3)c(C)cn2)no1` [Example 80] was 1 to 10 µM; that for `Cc1cnc(Nc2cn(C)nn2)cc1-c1cc(N2CCCC[C@@H]2C(F)(F)F)[nH]c(=O)c1` [Example 39] was 0.5 to 1 µM. Regarding `COC(=O)Nc1cc(-c2cc(N3CCOC[C@@H]3C(F)(F)F)[nH]c(=O)c2)c(C)cn1` [Example 37], the IC50 is at most 0.1 µM.

Turning to `Cc1cnc(NC(=O)C2CC2)cc1-c1cc(N2CCN(C(=O)CC3CC3)C[C@@H]2C)[nH]c(=O)c1` [Example 93], the IC50 is 1 to 10 µM. For `COCCC(=O)N1CCN(c2cc(-c3cc(NC(=O)C4CC4)ncc3C)cc(=O)[nH]2)[C@@H](C)C1` [Example 95], the IC50 is 1 to 10 µM. Under `Cc1cnc(NC(=O)NC2CC2)cc1-c1cc(N2CCCC[C@@H]2C(F)(F)F)[nH]c(=O)c1` [Example 59] stands 1 to 10 µM; under `COC(=O)Nc1cc(-c2cc(N3CCN(S(=O)(=O)CCN(C)C)C[C@@H]3C(F)(F)F)[nH]c(=O)c2)c(C)cn1` [Example 32], 0.1 to 0.5 µM. With `Cc1cnc(NC(=O)[C@@H]2CCN(C)C2)cc1-c1cc(N2CCCC[C@@H]2C(F)(F)F)[nH]c(=O)c1` [Example 65], the IC50 was in the range of 1 to 10 µM. The value for `Cc1cnc(NC(=O)c2cn[nH]c2)cc1-c1cc(N2CCCC[C@@H]2C(F)(F)F)[nH]c(=O)c1` [Example 47] was 0.5 to 1 µM; that for `Cc1cncc(Nc2cc(-c3cc(N4CCCC[C@@H]4C(F)(F)F)[nH]c(=O)c3)c(C)cn2)n1` [Example 2, (R)-5′-methyl-2′-((6-methylpyrazin-2-yl)amino)-6-(2-(trifluoromethyl)piperidin-1-yl)-[4,4′-bipyridin]-2(1H)-one] was at most 0.1 µM; that for `Cc1cnc(NC(=O)OC2CNC2)cc1-c1cc(N2CCCC[C@@H]2C(F)(F)F)[nH]c(=O)c1` [Example 54] was 1 to 10 µM. The value for `COC(=O)Nc1cc(-c2cc(N3CCN(S(=O)(=O)CCN(C)C)C[C@@H]3C)[nH]c(=O)c2)c(C)cn1` [Example 34] was at most 0.1 µM; that for `Cc1cnc(N)cc1-c1cc(-c2cccnc2C(F)(F)F)[nH]c(=O)c1` [Example 55] was 1 to 10 µM; that for `Cc1nccc(Nc2cc(-c3cc(NS(=O)(=O)c4ccc(F)cc4F)[nH]c(=O)c3)c(C)cn2)n1` [Example 96, 2,4-difluoro-N-(5′-methyl-2′-((2-methylpyrimidin-4-yl)amino)-6-oxo-1,6-dihydro-[4,4′-bipyridin]-2-yl)benzenesulfonamide] was 0.1 to 0.5 µM.
